± gives the expanded uncertainty stated by the source.
Experiments:
[1] = Molar enthalpy of transition or fusion; conditions: Crystal; DSC
[2] = Crystal; DTA

- Molar enthalpy of transition or fusion [1]: 5.31 ± 0.203 kcal/mol
- Normal melting temperature [2]: 133.00 ± 0.7 °C
SMILES: O=C(O)/C=C/c1ccccc1 [(E)-cinnamic acid]
